The text below walks through data of ChEMBL document CHEMBL4359843, “Linear and Rationally Designed Stapled Peptides Abrogate TLR4 Pathway and Relieve Inflammatory Symptoms in Rheumatoid Arthritis Rat Model” (J Med Chem, 2019).

Type in all cases: cell-based
The target of assay [1] is T1, Toll-like receptor 4 (Homo sapiens, UniProt O00206). Briefly: Antagonist activity at TLR4 in human THP1 cells assessed as reduction in LPS-induced IL6 secretion at 50 uM after 24 hrs by ELISA. Background: In an ELISA, binding on a coated surface is turned into a signal by an enzyme label.
T1 sequence (O00206 whole entry): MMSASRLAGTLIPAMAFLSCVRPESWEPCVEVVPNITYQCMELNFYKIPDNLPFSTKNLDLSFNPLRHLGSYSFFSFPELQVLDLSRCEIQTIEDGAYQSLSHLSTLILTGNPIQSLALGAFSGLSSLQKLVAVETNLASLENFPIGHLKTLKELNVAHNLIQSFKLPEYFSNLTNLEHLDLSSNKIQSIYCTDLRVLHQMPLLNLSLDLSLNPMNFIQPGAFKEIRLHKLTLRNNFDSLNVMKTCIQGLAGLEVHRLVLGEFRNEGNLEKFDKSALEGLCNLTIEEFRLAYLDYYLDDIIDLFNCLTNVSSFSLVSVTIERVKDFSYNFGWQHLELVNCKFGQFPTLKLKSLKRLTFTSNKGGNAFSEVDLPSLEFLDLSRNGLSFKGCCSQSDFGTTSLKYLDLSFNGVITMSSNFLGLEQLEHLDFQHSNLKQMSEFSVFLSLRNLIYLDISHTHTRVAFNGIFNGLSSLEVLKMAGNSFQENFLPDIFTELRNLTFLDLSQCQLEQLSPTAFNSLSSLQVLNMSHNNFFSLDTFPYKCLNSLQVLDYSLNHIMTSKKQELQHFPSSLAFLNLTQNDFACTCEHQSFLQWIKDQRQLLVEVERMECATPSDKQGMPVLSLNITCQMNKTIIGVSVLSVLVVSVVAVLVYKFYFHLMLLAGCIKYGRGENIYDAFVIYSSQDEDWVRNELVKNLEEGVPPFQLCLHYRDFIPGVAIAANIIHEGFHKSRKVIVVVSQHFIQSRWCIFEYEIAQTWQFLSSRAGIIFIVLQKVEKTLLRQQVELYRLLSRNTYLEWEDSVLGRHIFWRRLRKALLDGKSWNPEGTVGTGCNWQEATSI
The target of assay [2] is T1, Toll-like receptor 4. Briefly: Antagonist activity at TLR4 in human PBMC cells assessed as reduction in LPS-induced NFkappaB p65 phosphorylation at 80 uM after 15 to 30 mins by Western blot analysis. In general terms: Immunoblotting shows a protein as a band on a membrane.
The target in assay [3] is T2, Toll-like receptor 4 (Mus musculus) (UniProt Q9QUK6).
T2 sequence (whole entry): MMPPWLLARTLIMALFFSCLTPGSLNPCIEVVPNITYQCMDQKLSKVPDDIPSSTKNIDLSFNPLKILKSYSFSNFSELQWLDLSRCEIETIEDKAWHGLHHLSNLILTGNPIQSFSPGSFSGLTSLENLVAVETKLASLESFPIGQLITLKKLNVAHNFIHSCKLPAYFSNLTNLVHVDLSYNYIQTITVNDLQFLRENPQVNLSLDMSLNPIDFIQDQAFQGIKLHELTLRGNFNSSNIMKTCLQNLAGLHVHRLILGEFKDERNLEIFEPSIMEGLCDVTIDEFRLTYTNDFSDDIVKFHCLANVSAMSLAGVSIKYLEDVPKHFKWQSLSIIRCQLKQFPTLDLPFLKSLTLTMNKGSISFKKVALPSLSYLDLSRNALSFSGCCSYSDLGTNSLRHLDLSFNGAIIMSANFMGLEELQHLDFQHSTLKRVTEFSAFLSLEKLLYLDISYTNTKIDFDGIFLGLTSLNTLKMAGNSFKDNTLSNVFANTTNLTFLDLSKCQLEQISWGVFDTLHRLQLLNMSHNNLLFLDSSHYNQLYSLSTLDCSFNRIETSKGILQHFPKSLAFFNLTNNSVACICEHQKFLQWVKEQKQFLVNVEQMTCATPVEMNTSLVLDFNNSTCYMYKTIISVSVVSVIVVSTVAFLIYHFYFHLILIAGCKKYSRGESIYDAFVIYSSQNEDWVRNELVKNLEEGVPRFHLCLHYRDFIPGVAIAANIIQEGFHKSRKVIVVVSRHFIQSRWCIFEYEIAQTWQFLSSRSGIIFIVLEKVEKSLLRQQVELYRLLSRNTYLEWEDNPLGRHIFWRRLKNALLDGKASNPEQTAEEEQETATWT
Briefly: Antagonist activity at TLR4 in mouse RAW264.7 cells assessed as reduction in LPS-induced ATF3 activation at 80 uM after 120 to 240 mins by Western blot analysis.

Assay [4] concerns the target Toll-like receptor 1/2 (Homo sapiens) (UniProt O60603+Q15399). Description: Antagonist activity at TLR2/1 in human PBMC cells assessed as reduction in PAM3CSK4-induced TNFalpha secretion at 20 to 80 uM after 24 hrs by ELISA.

Activity calls are given as the source filed them. The rule behind the calls is not given here. Where a SMILES comes first, the peptide text is derived from it. Bridges are numbered along the chain shown (N, C = ends).

Consider `CC[C@H](C)[C@@H]1NC(=O)[C@H](Cc2c[nH]c3ccccc23)NC(=O)[C@H](Cc2c[nH]c3ccccc23)NC(=O)[C@@H](NC(=O)[C@H](CO)NC(=O)[C@H](Cc2ccccc2)NC(=O)[C@@H](NC(=O)CNC(=O)[C@@H](N)CC(C)C)C(C)C)CC(=O)NCCCC[C@@H](C(=O)N[C@@H](CC(C)C)C(=O)N[C@H](C(=O)O)C(C)C)NC1=O` (H-LGVFSDWWIKLV-OH; lactam 6-10), for which, on Toll-like receptor 4 [1], the result was Active.
As to H-LGVFSSWWIKLV-OH, the outcome (at Toll-like receptor 4 [2]; in assay [3]) was Active. The result in assay [4] was inactive.
